The values that follow come from patent US9572811B2, “Treatment of dry eye” (PRINCIPIA BIOPHARMA INC., priority 2012, dated 2017).

The target of the first assay is human recombinant Btk (Homo sapiens (Human), UniProt Q06187). As to the kind of experiment: Btk enzymatic activity assay (Caliper-based kinase assay). It counts as biochemical. Conditions: human recombinant Btk 2 nM, ATP 40 μM, peptide substrate 1 μM, room temperature 3 h; read-out: IC50 (μm).
human recombinant Btk, sequence (Q06187 whole entry): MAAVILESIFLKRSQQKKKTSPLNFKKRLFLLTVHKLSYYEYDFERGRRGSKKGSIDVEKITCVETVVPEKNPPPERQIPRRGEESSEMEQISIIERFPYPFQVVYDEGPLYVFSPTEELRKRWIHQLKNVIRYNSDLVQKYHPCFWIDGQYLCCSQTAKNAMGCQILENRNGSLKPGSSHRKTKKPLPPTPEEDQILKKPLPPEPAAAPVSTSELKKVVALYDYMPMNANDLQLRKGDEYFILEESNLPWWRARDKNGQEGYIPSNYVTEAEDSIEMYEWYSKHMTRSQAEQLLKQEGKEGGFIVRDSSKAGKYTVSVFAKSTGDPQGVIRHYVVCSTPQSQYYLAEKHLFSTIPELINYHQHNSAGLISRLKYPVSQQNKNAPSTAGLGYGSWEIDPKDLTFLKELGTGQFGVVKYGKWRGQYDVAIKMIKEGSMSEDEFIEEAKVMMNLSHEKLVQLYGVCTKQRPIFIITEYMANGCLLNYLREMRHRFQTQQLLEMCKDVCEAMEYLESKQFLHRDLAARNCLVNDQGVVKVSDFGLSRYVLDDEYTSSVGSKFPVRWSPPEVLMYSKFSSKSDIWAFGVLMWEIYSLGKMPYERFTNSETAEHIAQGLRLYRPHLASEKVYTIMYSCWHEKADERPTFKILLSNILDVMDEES
Experimental: A Caliper-based kinase assay (Caliper Life Sciences, Hopkinton, Mass.) was used to measure inhibition of Btk kinase activity of a compound of Formula (I). […] The reaction was then terminated with EDTA, final concentration 20 mM and the phosphorylated reaction product was quantified on a Caliper Desktop Profiler (Caliper LabChip 3000). […] This value is presented as the IC50.
In the case of `N#CC(=CC1CC1)C(=O)N1CCC(n2nc(-c3ccc(Oc4ccccc4)cc3)c3c(N)ncnc32)CC1` [Cpd 3, 2-(4-(4-amino-3-(4-phenoxyphenyl)-1H-pyrazolo[3,4-d]pyrimidin-1-yl)piperidine-1-carbonyl)-3-cyclopropylacrylonitrile], the IC50 was found to be 175 nM. On the same count and under the same terms, as for `COc1cc(-c2nn(CC3CCCN3C(=O)C(C#N)=CC3CC3)c3ncnc(N)c23)ccc1Oc1ccc(Cl)c(Cl)c1` (stereo not shown) [Cpd 5], the figure is 1 nM; as for `N#CC(=CC1CC1)C(=O)NC1CCC(n2nc(-c3ccc(Oc4ccccc4)cc3)c3c(N)ncnc32)CC1` (stereo not shown) [Cpd 11, N-((1s,4s)-4-(4-amino-3-(4-phenoxyphenyl)-1H-pyrazolo[3,4-d]pyrimidin-1-yl)cyclohexyl)-2-cyano-3-cyclopropylacrylamide], 14 nM; as for `[C-]#[N+]C(=CC1CC1)C(=O)N1CCC[C@@H](n2nc(-c3ccc(Oc4ccccc4)cc3F)c3c(N)ncnc32)C1` [Cpd 22B], 2.6 nM. The same measure, in the same setting: the result for `N#CC(=CC1CC1)C(=O)N1CCC[C@@H]1Cn1nc(-c2ccc(Oc3c(F)cccc3F)cc2F)c2c(N)ncnc21` [Cpd 44A, (R)-2-(2-((4-amino-3-(2-fluoro-4-(2,6-difluorophenoxy)phenyl)-1H-pyrazolo[3,4-d]pyrimidin-1-yl)methyl)pyrrolidine-1-carbonyl)-3-cyclopropylacrylonitrile] reads 5 nM. Take `N#CC(=CC1CC1)C(=O)N1CCC[C@H]1Cn1nc(-c2ccc(Oc3c(F)cccc3F)cc2F)c2c(N)ncnc21` [Cpd 44B, (S)-2-(2-((4-amino-3-(2-fluoro-4-(2,6-difluorophenoxy)phenyl)-1H-pyrazolo[3,4-d]pyrimidin-1-yl)methyl)pyrrolidine-1-carbonyl)-3-cyclopropylacrylonitrile]: the IC50 turned out to be 3 nM. On the same count and under the same terms, as for `CC(C)(C=C(C#N)C(=O)N1CCC[C@H]1Cn1nc(-c2ccc(Oc3ccccc3)cc2F)c2c(N)ncnc21)NC1CC1` [Cpd 87B, (S)-2-(2-((4-amino-3-(2-fluoro-4-phenoxyphenyl)-1H-pyrazolo[3,4-d]pyrimidin-1-yl)methyl)pyrrolidine-1-carbonyl)-4-(cyclopropylamino)-4-methylpent-2-enenitrile], the figure is 12 nM; as for `COCCNC(C)(C)C=C(C#N)C(=O)N1CCC[C@H]1Cn1nc(-c2ccc(Oc3ccccc3)cc2F)c2c(N)ncnc21` [Cpd 88B, (S)-2-(2-((4-amino-3-(2-fluoro-4-phenoxyphenyl)-1H-pyrazolo[3,4-d]pyrimidin-1-yl)methyl)pyrrolidine-1-carbonyl)-4-((2-methoxyethyl)amino)-4-methylpent-2-enenitrile], 29 nM. Still for that read-out and setting: as for `CCOC(C)(C)C=C(C#N)C(=O)N1CCC[C@@H]1Cn1nc(-c2ccc(Oc3ccccc3)cc2F)c2c(N)ncnc21` [Cpd 89A, (R)-2-(2-((4-amino-3-(2-fluoro-4-phenoxyphenyl)-1H-pyrazolo[3,4-d]pyrimidin-1-yl)methyl)pyrrolidine-1-carbonyl)-4-ethoxy-4-methylpent-2-enenitrile], the figure is 3100 nM; as for `CCOC(C)(C)C=C(C#N)C(=O)N1CCC[C@H]1Cn1nc(-c2ccc(Oc3ccccc3)cc2F)c2c(N)ncnc21` [Cpd 89B, (S)-2-(2-((4-amino-3-(2-fluoro-4-phenoxyphenyl)-1H-pyrazolo[3,4-d]pyrimidin-1-yl)methyl)pyrrolidine-1-carbonyl)-4-ethoxy-4-methylpent-2-enenitrile], 6600 nM. Still for that read-out and setting: the result for `CC(C)(C=C(C#N)C(=O)N1CCC[C@@H]1Cn1nc(-c2ccc(Oc3ccccc3)cc2F)c2c(N)ncnc21)N1CCOCC1` [Cpd 95A, (R)-2-(2-((4-amino-3-(2-fluoro-4-phenoxyphenyl)-1H-pyrazolo[3,4-d]pyrimidin-1-yl)methyl)pyrrolidine-1-carbonyl)-4-methyl-4-morpholinopent-2-enenitrile] reads 26.5 nM; that for `CC(C)(C=C(C#N)C(=O)N1CCC[C@H]1Cn1nc(-c2ccc(Oc3ccccc3)cc2F)c2c(N)ncnc21)N1CCOCC1` [Cpd 95B, (S)-2-(2-((4-amino-3-(2-fluoro-4-phenoxyphenyl)-1H-pyrazolo[3,4-d]pyrimidin-1-yl)methyl)pyrrolidine-1-carbonyl)-4-methyl-4-morpholinopent-2-enenitrile], 3.2 nM; that for `CNC(C)(C)C=C(C#N)C(=O)N1CCC[C@@H]1Cn1nc(-c2ccc(Oc3cccc(F)c3F)cc2F)c2c(N)ncnc21` [Cpd 105A, (R)-2-(2-((4-amino-3-(4-(2,3-difluorophenoxy)-2-fluorophenyl)-1H-pyrazolo[3,4-d]pyrimidin-1-yl)methyl)pyrrolidine-1-carbonyl)-4-methyl-4-(methylamino)pent-2-enenitrile], 1.3 nM.

For `CNC(C)(C)C=C(C#N)C(=O)N1CCC[C@H]1Cn1nc(-c2ccc(Oc3cccc(F)c3F)cc2F)c2c(N)ncnc21` [Cpd 105B, (S)-2-(2-((4-amino-3-(4-(2,3-difluorophenoxy)-2-fluorophenyl)-1H-pyrazolo[3,4-d]pyrimidin-1-yl)methyl)pyrrolidine-1-carbonyl)-4-methyl-4-(methylamino)pent-2-enenitrile], the IC50 came to 25.5 nM.

Consider `CN(C)C(C)(C)C=C(C#N)C(=O)N1CCC[C@@H]1Cn1nc(-c2ccc(Oc3cccc(F)c3F)cc2F)c2c(N)ncnc21` [Cpd 106A, (R)-2-(2-((4-amino-3-(4-(2,3-difluorophenoxy)-2-fluorophenyl)-1H-pyrazolo[3,4-d]pyrimidin-1-yl)methyl)pyrrolidine-1-carbonyl)-4-(dimethylamino)-4-methylpent-2-enenitrile], for which the IC50 was 6 nM. On the same count and under the same terms, the result for `CN(C)C(C)(C)C=C(C#N)C(=O)N1CCC[C@H]1Cn1nc(-c2ccc(Oc3cccc(F)c3F)cc2F)c2c(N)ncnc21` [Cpd 106B, (S)-2-(2-((4-amino-3-(4-(2,3-difluorophenoxy)-2-fluorophenyl)-1H-pyrazolo[3,4-d]pyrimidin-1-yl)methyl)pyrrolidine-1-carbonyl)-4-(dimethylamino)-4-methylpent-2-enenitrile] reads 1.5 nM; that for `C[C@H](Cn1nc(-c2ccc(Oc3ccccc3)cc2F)c2c(N)ncnc21)NC(=O)C(C#N)=CC(C)(C)N` [Cpd 188], 0.7 nM. On the same count and under the same terms, the result for `C[C@@H](Cn1nc(-c2ccc(Oc3ccccc3)cc2F)c2c(N)ncnc21)NC(=O)C(C#N)=CC1CC1` [Cpd 197B] reads 32.5 nM.

Staying with this assay, now noted: read-out: IC50 (μm).
Turning to `NC(=O)C(=CC1CC1)C(=O)N1CCC[C@@H](n2nc(-c3ccc(Oc4ccccc4)cc3)c3c(N)ncnc32)C1` [Cpd 30A, (R)-2-(3-(4-amino-3-(4-phenoxyphenyl)-1H-pyrazolo[3,4-d]pyrimidin-1-yl)piperidine-1-carbonyl)-3-cyclopropylacrylamide], the IC50 amounted to 1.7 nM.

For orientation: IC50 means the concentration at which inhibition is half-maximal.
